Our source for the IC50 values is ChEMBL document CHEMBL3714712, “Thieno [2,3-c]pyrazoles for use as potassium channel inhibitors” (2013).

The structures appear in SMILES notation. Where only a bound is given, the exact number is not on record here.

The target of this assay is T1, Kir3.1/Kir3.4 (Rattus norvegicus, UniProt P48548+P63251).
T1 sequence (P63251 whole entry): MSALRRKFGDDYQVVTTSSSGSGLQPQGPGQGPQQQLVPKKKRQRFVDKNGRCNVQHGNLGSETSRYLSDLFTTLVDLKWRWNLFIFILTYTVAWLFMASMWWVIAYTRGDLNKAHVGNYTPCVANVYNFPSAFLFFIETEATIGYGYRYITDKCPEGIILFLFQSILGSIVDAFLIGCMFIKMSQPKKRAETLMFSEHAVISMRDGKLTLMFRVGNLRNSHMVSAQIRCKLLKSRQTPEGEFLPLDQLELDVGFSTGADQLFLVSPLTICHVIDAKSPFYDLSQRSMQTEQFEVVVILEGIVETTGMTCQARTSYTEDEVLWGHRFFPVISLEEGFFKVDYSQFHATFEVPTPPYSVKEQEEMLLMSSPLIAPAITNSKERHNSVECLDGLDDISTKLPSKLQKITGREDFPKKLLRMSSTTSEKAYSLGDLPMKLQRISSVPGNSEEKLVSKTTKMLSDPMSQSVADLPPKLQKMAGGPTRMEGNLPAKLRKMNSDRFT
T1 sequence (P48548 whole entry): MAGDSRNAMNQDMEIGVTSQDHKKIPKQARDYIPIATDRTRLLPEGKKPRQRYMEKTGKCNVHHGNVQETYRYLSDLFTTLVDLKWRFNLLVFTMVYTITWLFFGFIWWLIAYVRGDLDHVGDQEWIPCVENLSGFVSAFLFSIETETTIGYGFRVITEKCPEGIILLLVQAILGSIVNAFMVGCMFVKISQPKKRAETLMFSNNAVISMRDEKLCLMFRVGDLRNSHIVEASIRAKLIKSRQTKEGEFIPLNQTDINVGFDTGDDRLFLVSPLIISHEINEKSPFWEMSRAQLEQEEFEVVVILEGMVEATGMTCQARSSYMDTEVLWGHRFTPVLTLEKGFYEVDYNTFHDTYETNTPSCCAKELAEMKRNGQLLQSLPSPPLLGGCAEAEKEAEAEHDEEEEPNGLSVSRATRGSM
The assay is described as follows: Inhibition of rat Kir3.1/Kir3.4 expressed in HEK293 cells assessed as reduction in depolarizing voltage step-induced recombinant G-protein activated inward rectifier current by whole cell patch clamp assay. It is filed as cell-based.
Turning to `CC(=O)n1nc(N2CCC(COCCN3CCCC3)C2)c2c(-c3ccccc3)csc21` (stereo not given), the IC50 is less than 0.5 µM. For `CC(=O)n1nc(N2CC3CC2CC3OCCN2CCCC2)c2c(-c3ccccc3)csc21` (stereo not given), the concentration for half-maximal inhibition (IC50) is less than 0.5 µM. Turning to `c1ccc(-c2csc3[nH]nc(N4CCC(COCCN5CCCC5)CC4)c23)cc1`, the IC50 was less than 0.5 µM. For the compound `Cn1nc(N2CCC(COCCN3CCCC3)CC2)c2c(-c3ccccc3)csc21`, the 50% inhibitory concentration (IC50) was less than 0.5 µM. For `CC(=O)n1nc(N2CCCC(COCCN3CCCC3)C2)c2c(-c3ccccc3)csc21` (stereo not given), the IC50 is less than 0.5 µM.

As to `c1ccc(-c2csc3[nH]nc(N4C5CCC4CC(OCCN4CCCC4)C5)c23)cc1` (stereo not given), the IC50 was less than 0.5 µM. The same measure for `CC(C)NC(=O)c1sc2[nH]nc(N3CCC(COCCN4CCCC4)CC3)c2c1-c1ccccc1`: less than 0.5 µM; for `CN(C)C(=O)c1sc2[nH]nc(N3CCC(COCCN4CCCC4)CC3)c2c1-c1ccccc1`: 0.5 µM. The same measure for `CN(C)C(=O)c1sc2c(c(N3CCC(COCCN4CCCC4)CC3)nn2C)c1-c1ccccc1`: 0.5 µM; for `c1ccc(-c2csc3[nH]nc(N4CCCC(COCCN5CCCC5)C4)c23)cc1` (stereo not given): less than 0.5 µM; for `CC(=O)n1nc(N2CCC(COCCN3CCCC3)CC2)c2c(-c3ccccc3)csc21`: less than 0.5 µM. Next, `c1ccc(-c2csc3[nH]nc(N4CC5CC4CC5OCCN4CCCC4)c23)cc1` (stereo not given): less than 0.5 µM. In the case of `CC(=O)n1nc(N2C3CCC2CC(OCCN2CCCC2)C3)c2c(-c3ccccc3)csc21` (stereo not given), the IC50 is less than 0.5 µM.

With `c1ccc(-c2csc3[nH]nc(N4C5CCC4CC(N4CCC4)C5)c23)cc1` (stereo not given), the half-inhibitory concentration (IC50) was found to be 0.5 µM.

Regarding `Fc1ccc(-c2csc3[nH]nc(N4CC5CC4CC5OCCN4CCCC4)c23)cc1` (stereo not given), the IC50 is less than 0.5 µM. For `CC(C)NC1CC2CCC(C1)N2c1n[nH]c2scc(-c3ccccc3)c12` (stereo not given), the IC50 was 0.5 µM. The same measure for `CC(=O)n1nc(N2CC3CC2CC3OCCN2CCCC2)c2c(-c3ccc(F)cc3)csc21` (stereo not given): less than 0.5 µM; for `N#Cc1sc2[nH]nc(N3CCC(COCCN4CCCC4)CC3)c2c1-c1ccccc1`: less than 0.5 µM. `c1ccc(-c2csc3[nH]nc(N4C5CCC4CC(COCCN4CCCC4)C5)c23)cc1` (stereo not given): the IC50 is less than 0.5 µM. For `CS(=O)(=O)n1nc(N2CCC(COCCN3CCCC3)CC2)c2c(-c3ccccc3)csc21`, the IC50 was less than 0.5 µM.

For `CNC(=O)c1sc2[nH]nc(N3CCC(COCCN4CCCC4)CC3)c2c1-c1ccccc1`, the concentration for half-maximal inhibition (IC50) was less than 0.5 µM.

With `Brc1sc2[nH]nc(N3CC4CC3CC4OCCN3CCCC3)c2c1-c1ccccc1` (stereo not given), the IC50 was less than 0.5 µM. As to `CS(=O)(=O)n1nc(N2CC3CC2CC3OCCN2CCCC2)c2c(-c3ccc(F)cc3)csc21` (stereo not given), the IC50 is less than 0.5 µM. Regarding `c1ccc(-c2csc3[nH]nc(N4CCC(COCCN5CCCC5)C4)c23)cc1` (stereo not given), the IC50 was less than 0.5 µM.

For `c1ccc(-c2csc3[nH]nc(N4C5CCC4CC(NC4CCC4)C5)c23)cc1` (stereo not given), the IC50 is less than 0.5 µM.

The term IC50 denotes the point on the concentration scale where inhibition reaches its midpoint.
